Source: patent US20080004290A1, “Anti-Cancer Agents” (THE UNIVERSITY OF QUEENSLAND, priority 2003, published 2008)
pIC50: −log10 of the molar value. Read-outs that look alike come from different tables or passages of the source.

Tests used:
MM96L melanoma cells = test: Cell survival assay (clonogenic survival, SRB); type: cell-based, human; conditions: for IC50 / pIC50: Homo sapiens, MM96L; for IC50: MM96L melanoma, 24 h with compound, further 72 h growth, SRB, read-out: IC50 (uM) MM96L; for SI (Selectivity Index = IC50 (NFF)/IC50 (MM96L)): NFF vs MM96L; for pIC50: most preferred compounds, exemplary examples, read-out: potency of IC50 against the MM96 melanoma cells
How it was run: (§1)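 Cells (5×10^3/well, RPMI 1640 with 10% FCS) treated 24 h with compound at 0.01-10 μg/mL, then washed and grown 72 h drug-free at 37 °C, 5% CO2. Survival read by SRB staining after methylated-spirit fixation, absorbance 564 nm.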

[1] = test system: NFF, neonatal foreskin fibroblasts; test: Cell survival assay (clonogenic survival, SRB), normal cells; type: cell-based, human; conditions: Homo sapiens, Fibroblast, NFF normal fibroblasts; 24 h with compound, further 72 h growth, SRB; read-out: IC50 (uM) NFF
How it was run: as §1

What does the source list for `O=C(CCCCC[C@H](NC(=O)c1ccc(Br)cc1)C(=O)NCc1ccncc1)NO` [Example 158]?
IC50 (MM96L melanoma cells): 0.837 µM; SI (Selectivity Index = IC50 (NFF)/IC50 (MM96L)) (MM96L melanoma cells): 6.3; IC50 [1]: 5.24 µM

Which IC50 (MM96L melanoma cells) does the source give for `O=C(CCCCC[C@H](NC(=O)OCc1ccccc1)C(=O)NCc1ccncc1)NO` [Example 159] here?
Its IC50 is 4.32 µM.

And the “SI (Selectivity Index = IC50 (NFF)/IC50 (MM96L))” value (MM96L melanoma cells)?
Its value is 5.4.

What about the IC50 [1] of the same compound?
The IC50 was 23.3 µM.

With `O=C(CCCCC[C@H](NC(=O)OCc1ccccc1)C(=O)Nc1ccc(-c2ccccc2)cc1)NO` [Example 160] as the compound, how does the IC50 (MM96L melanoma cells) read?
Its IC50 is 0.331 µM.

What about the pIC50 (MM96L melanoma cells) of the same compound?
Its pIC50 is ≥ 6.30.

And the “SI (Selectivity Index = IC50 (NFF)/IC50 (MM96L))” value (MM96L melanoma cells)?
The value was 6.7.

And the IC50 [1]?
Its IC50 is 2.21 µM.

For `O=C(CCCCC[C@H](NC(=O)Cc1c[nH]c2ccccc12)C(=O)NCc1ccccc1)NO` [Example 162], which IC50 (MM96L melanoma cells) is on record?
Its IC50 is 0.332 µM.

And the pIC50 (MM96L melanoma cells)?
The pIC50 was ≥ 6.30.

And the “SI (Selectivity Index = IC50 (NFF)/IC50 (MM96L))” value (MM96L melanoma cells)?
Its value is >7.

What about the IC50 [1] of the same compound?
Its IC50 is > 2.22 µM.

Which IC50 (MM96L melanoma cells) does the source give for `O=C(CCCCC[C@H](NC(=O)CCCc1c[nH]c2ccccc12)C(=O)NCc1ccccc1)NO` [Example 163] here?
Its IC50 is 1.84 µM.

What about the “SI (Selectivity Index = IC50 (NFF)/IC50 (MM96L))” value (MM96L melanoma cells) of the same compound?
The value was 3.8.

And the IC50 [1]?
Its IC50 is 7.03 µM.

What does the source list for `O=C(CCCCC[C@H](NC(=O)c1cc2c(Br)cccc2[nH]1)C(=O)NCc1ccccc1)NO` [Example 165]?
IC50 (MM96L melanoma cells): 0.485 µM; SI (Selectivity Index = IC50 (NFF)/IC50 (MM96L)) (MM96L melanoma cells): 4.0; IC50 [1]: 1.94 µM

What does the source list for `O=C(CCCCC[C@H](NC(=O)c1cc2c(O)cccc2[nH]1)C(=O)NCc1ccccc1)NO` [Example 166]?
IC50 (MM96L melanoma cells): 0.331 µM; pIC50 (MM96L melanoma cells): ≥ 6.30; SI (Selectivity Index = IC50 (NFF)/IC50 (MM96L)) (MM96L melanoma cells): 6.7; IC50 [1]: 2.21 µM

What does the source list for `O=C(/C=C/c1c[nH]c2ccccc12)N[C@@H](CCCCCC(=O)NO)C(=O)NCc1ccccc1` [Example 167]?
IC50 (MM96L melanoma cells): 3.24 µM; SI (Selectivity Index = IC50 (NFF)/IC50 (MM96L)) (MM96L melanoma cells): 3.2; IC50 [1]: 10.4 µM
